Test results reported in patent US11479536B1 (King Abdulaziz University, priority 2022, dated 2022).

Assays:
[1] = Stability in human liver microsomes; assay type: in vitro ADME
Procedure: Both mouse and human liver microsomes were obtained from Merck KGaA, (Darmstadt, Germany), Cat. No. M9441 (Mouse liver microsomes) and M0317 (Human liver microsomes). Assays were conducted in triplicate in 96-deep well polypropylene plates. The compounds were incubated with pooled liver microsomes from male CD-1 mice (Life Technologies, Grand Island, N.Y.), tetra-sodium NADPH and magnesium chloride for 60 min at 37° C. with gentle shaking. At five time points, reaction mixture aliquots were transferred to 96-shallow well stop plates on ice containing acetonitrile with 0.1 μM propafenone. […] Standard curves for test compound were generated using 5 concentrations in triplicate that were processed as above but with zero incubation time. Stop plates were centrifuged at 2000 g for 10 min and then supernatant aliquots were transferred to a Waters Aquity® UPLC 700 μL 96-well sample plate with cap mat (Waters, Milford, Mass.). The amount of compound remaining in the supernatant was quantified by LC/MS/MS using a Waters Xevo TQ MS (electrospray positive mode) coupled to a Waters Aquity® UPLC (BEH column, C18). Propafenone was used as the internal standard. GraphPad® Prism v 5.04 was used for nonlinear fitting of time course data to generate t1/2 values.

[2] = system: human skin fibroblasts (HSF); test: Cytotoxicity on human skin fibroblasts (SRB method); assay type: cell-based
Procedure: In addition to have a good physicochemical profile, it is important for a studied lead to differentiate between cancer cells and highly proliferating non-cancerous cells. Therefore, we assessed compounds MAK-1 and MAK-6 for both the in silico and in vitro physicochemical characteristics as well as for cytotoxic effect on human skin fibroblasts (SKF) cell lines. Cytotoxicity was determined using Sulforhodamine B (SRB) method. Exponentially growing human skin fibroblast cells (Nawah Scientific, Cairo, Egypt) were collected using 0.25% Trypsin-EDTA and were then seeded in 96-well plates at a density of 1000-2000 cells/well in 10% FBS and penicillin/streptomycin supplemented RPMI-1640 medium. After 24 h, cells were treated with different concentrations of test compounds and incubated for 72 h at 37° C. in a humidified atmosphere containing 5% CO2. Next, the cells were fixed by adding trichloroacetic acid (TCA, 10% final conc. in wells) directly to the wells and incubated for 1 h at 4° C., then cells were washed with distilled water 5 times to remove excess TCA, media, serum proteins, and metabolites, followed by air drying. After that, the fixed cells were stained with 0.4% SRB dissolved in 1% acetic acid for 10 min at room temperature, and excess stain was removed by quickly rinsing with 1% acetic acid. The residual acetic acid was removed completely by air drying the plates for 24 h, and the dye was solubilized with Tris buffer (pH=7.4, 10 mM) for 5 min on a shaker at 1600 rpm. The optical density (OD) of each well was measured spectrophotometrically at 564 nm with an ELISA microplate reader (ChroMate-4300, FL, USA). The IC50 values were calculated according to the equation for Boltzman sigmoidal concentration—response curve using the nonlinear regression fitting models (Graph Pad, Prism Version 5).

[3] = system: T47D spheroids; test: Cytotoxicity assay (MTT) in spheroid culture, T47D; assay type: cell-based, human; settings: for IC50: Homo sapiens, T47D, 3D spheroid model, 48 h, MTT; for reduction of spheroid size: T47D spheroids treated at IC50 for 48 h, vs control
Procedure: (§1) 1×10^4 cells of each cell line (MCF7 and T47D) were seeded into ultra-low attachment 96 well plate at 37° C. and grown for 48 hours in DMEM media to result in the formation of spheroids. Then, the cells were subjected to the different treatment conditions before performing the assays.
(§2) The cytotoxic effects of MAK compounds were assessed against MCF7 and T47D cell lines using MTT cell viability assay. The cells were treated for 48 hours with different concentrations of each MAK compound and the control cells were subjected to the vehicle (0.1% DMSO). Then, 10% of 5 mg/mL MTT was added to each well containing treated or control cells, and mixture was incubated at 37° C. for 3 hours. After that, the MTT-containing media was replaced with 100 μL DMSO and incubated for 10 minutes at room temperature before measuring the absorbance for each well at 570 nm. According to the measured absorbance, the IC50 was calculated for each compound. All the experiments were performed in biological and experimental replicates.

[4] = system: MCF7 spheroids; test: Cytotoxicity assay (MTT) in spheroid culture, MCF7; assay type: cell-based, human; settings: for IC50: Homo sapiens, MCF7, 3D spheroid model, 48 h, MTT; for reduction of spheroid size: MCF7 spheroids treated at IC50 for 48 h, vs control
Procedure: as §1, §2

[5] = target: T1, AMPK (A1/B1/G2) (Homo sapiens, UniProt Q13131+Q9UGJ0+Q9Y478); test: Cell-free AMPK inhibition assay, AMPK (A1/B1/G2) Kinase Enzyme system; assay type: biochemical; settings: recombinant full-length human AMPK
T1 construct: This system includes a recombinant full-length human AMPK enzyme; purchased Promega
T1 sequence (Q13131 whole entry): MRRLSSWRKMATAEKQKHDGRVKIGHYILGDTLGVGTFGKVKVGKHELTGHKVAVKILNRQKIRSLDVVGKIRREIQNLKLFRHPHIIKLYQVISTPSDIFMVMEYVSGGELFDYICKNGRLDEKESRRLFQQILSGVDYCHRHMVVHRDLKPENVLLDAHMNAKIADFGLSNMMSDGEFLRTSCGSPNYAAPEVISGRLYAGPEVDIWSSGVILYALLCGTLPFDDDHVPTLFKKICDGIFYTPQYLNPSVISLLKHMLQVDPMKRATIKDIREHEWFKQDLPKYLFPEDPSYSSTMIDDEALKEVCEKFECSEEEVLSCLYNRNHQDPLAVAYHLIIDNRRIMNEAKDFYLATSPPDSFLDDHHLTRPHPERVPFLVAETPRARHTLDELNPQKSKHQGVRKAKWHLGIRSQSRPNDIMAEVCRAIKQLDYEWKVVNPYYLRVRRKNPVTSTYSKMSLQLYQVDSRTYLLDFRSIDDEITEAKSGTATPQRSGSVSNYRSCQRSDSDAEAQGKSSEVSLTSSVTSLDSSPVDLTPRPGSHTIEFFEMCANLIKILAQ
T1 sequence (Q9Y478 whole entry partner): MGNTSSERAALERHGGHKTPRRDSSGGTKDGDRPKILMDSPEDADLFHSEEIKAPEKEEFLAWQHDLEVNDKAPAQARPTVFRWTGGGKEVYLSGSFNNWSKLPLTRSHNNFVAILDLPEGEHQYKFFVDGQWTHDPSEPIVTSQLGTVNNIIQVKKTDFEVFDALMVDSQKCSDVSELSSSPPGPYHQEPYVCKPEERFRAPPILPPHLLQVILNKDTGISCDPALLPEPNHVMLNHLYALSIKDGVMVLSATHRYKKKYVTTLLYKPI
T1 sequence (Q9UGJ0 whole entry partner): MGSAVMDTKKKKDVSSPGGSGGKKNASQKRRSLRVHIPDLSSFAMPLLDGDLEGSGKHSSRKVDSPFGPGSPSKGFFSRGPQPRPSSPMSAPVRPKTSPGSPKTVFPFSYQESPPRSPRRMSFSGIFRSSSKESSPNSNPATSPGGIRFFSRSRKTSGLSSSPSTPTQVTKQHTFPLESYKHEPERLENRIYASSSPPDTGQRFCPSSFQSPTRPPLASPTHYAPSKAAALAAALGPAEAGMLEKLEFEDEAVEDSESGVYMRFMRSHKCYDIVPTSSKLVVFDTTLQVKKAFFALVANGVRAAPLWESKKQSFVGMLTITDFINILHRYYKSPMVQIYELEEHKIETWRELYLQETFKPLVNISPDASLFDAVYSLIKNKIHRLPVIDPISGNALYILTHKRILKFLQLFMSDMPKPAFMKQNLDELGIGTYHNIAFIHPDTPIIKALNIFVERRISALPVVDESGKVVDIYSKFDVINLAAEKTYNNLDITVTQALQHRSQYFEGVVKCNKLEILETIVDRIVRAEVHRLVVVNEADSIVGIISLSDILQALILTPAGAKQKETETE
Procedure: The inhibitory effect of serial concentrations of MAK compounds on AMPK Kinase activity was investigated using the highly sensitive AMPK (A1/B1/G2) Kinase Enzyme assay system (Promega, Madison Wis. USA). This system includes a recombinant full-length human AMPK enzyme and a substrate for the enzyme. The experiment was conducted according to the manufacturer's instructions in the provided protocol. Mean values of replicates were calculated in comparison to the control group.

[6] = system: MCF7 spheroids; test: Reactive oxygen species (CellROX) assay, MCF7 spheroids; assay type: cell-based, human; settings: 48 h treatment, CellROX Green
Procedure: The CELLROX (Invitrogen) assay was used to measure the level of reactive oxygen species (ROS) in live cells. […] The technique was used to investigate the capability of tested compounds to induce intracellular ROS. After forming the spheroids for 48 hours and treating them for additional 48 hours with MAK compound, spheroids were incubated in culture medium with 500 nM CellROX for 60 minutes at 37° C. in presence of 5% CO2, and the samples were immediately analyzed on flow cytometry using 488-nm excitation for the CellROX® Green.

[7] = target: T2, CYP2C9 (Homo sapiens, UniProt P11712); test: Inhibition assay of human CYP450 enzymes, 2C9; assay type: in vitro ADME
T2 construct: purchased Fisher Scientific; host or cells: insect supersomes
T2 sequence (P11712 whole entry): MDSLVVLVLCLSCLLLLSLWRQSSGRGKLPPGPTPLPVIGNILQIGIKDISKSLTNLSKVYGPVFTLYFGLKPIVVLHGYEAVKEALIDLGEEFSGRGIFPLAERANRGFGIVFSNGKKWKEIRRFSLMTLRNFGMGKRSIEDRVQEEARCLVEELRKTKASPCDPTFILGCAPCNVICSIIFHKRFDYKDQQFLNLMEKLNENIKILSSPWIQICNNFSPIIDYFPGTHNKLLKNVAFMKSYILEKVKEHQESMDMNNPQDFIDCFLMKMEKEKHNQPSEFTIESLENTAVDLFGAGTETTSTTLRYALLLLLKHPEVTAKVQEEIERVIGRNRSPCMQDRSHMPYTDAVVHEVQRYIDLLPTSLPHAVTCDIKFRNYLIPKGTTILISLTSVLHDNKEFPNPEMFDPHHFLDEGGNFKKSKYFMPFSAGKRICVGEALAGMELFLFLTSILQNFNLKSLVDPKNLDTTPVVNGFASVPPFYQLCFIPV
Procedure: The two compounds MAK-1 and MAK-6 were assessed for its ability to inhibit the three major human CYP450 enzymes, 3A4, 2D6 and 2C9. Assays were run in triplicate. Expressed enzymes in insect supersomes (Fisher Scientific, Waltham, Mass.) were used to minimize non-specific binding and membrane partitioning issues (McMasters et al., 2007). The 3A4 assay uses testosterone as a substrate and analysis was performed by LC/MS/MS on a Waters Xevo TQ instrument as described above using positive electrospray ionization. Assay acceptance criteria was 20% for all standards and 25% for the LLOQ. The 2D6 and 2C9 assays use fluorescent substrates (3-[2-(N,N-diethylamino)ethyl]-7-methoxy-4-methylcoumarin for 2D6; 7-methoxy-4-(trifluoromethyl)coumarin for 2C9) and were analyzed on an Envision plate reader. GraphPad® Prism v 5.04 was used for nonlinear fitting of data to generate IC50 values.

| Structure (SMILES) | half-life ([1]; human, liver microsomes, in the presence of NADPH, 37° C., read-out: stability to oxidative metabolism in human liver microsomes (t1/2)) [min] | stability in human liver microsomes ([1]; lacking (in absence of) NADPH) | normal cells inhibited at x-fold higher concentrations than MCF7 breast cancer cells ([2]; HSF vs MCF7) [fold] | IC50 [3] [µM] | reduction of spheroid size [3] | IC50 [4] [µM] | reduction of spheroid size [4] | IC50 [5] [µM] | ROS level, treatment vs control [6] [%] | inhibition of CYP2C9 ([7]; concentrations up to 10 μM) | stability in human liver microsomes ([1]; in presence of NADPH, result in words) | safety to normal cells (human skin fibroblasts) ([2]; HSF, SRB, 72 h) | inhibition of CYP2C9 ([7]; concentration not given) |
| --- | --- | --- | --- | --- | --- | --- | --- | --- | --- | --- | --- | --- | --- |
| COc1cccc(C(=O)Nc2ccc(CC(=O)NCc3ccccc3)cc2)c1 [MAK-1, N-(4-(2-(benzylamino)-2-oxoethyl)phenyl)-3-methoxybenzamide] | 35 | a trend that was not repeated | 7 | 13.9 ± 0.095 | noticeable reduction | 23.81 ± 0.16 | noticeable reduction | 0.0048 | 10 | no inhibition | – | – | – |
| O=C(Cc1ccc(NC(=O)c2cccc(Cl)c2)cn1)NCc1ccccc1 [MAK-6, N-(6-(2-(benzylamino)-2-oxoethyl)pyridin-3-yl)-3-chlorobenzamide] | – | highly stable | – | 7.29 ± 0.085 | noticeable reduction | 22.9 ± 0.245 | noticeable reduction | 0.0056 | 6 | – | highly stable | highly safe | did not display any inhibitory activity |
